Measurements: patent publication US20250270584A1, “Gene editing to provide insect resistance in crops” (The Regents of the University of California, priority 2022, published 2025)

Key:
[1] = test system: BoGLR3.3; assay: Single-cell Ca2+ imaging in COS-7 cells expressing BoGLR3.3; assay type: cell-based, Brassica oleracea; details: COS-7 cells expressing BoGLR3.3 alone, external Glu application
Procedure: (§1) The full-length coding sequences were amplified from cDNA of Arabidopsis (GLR3.1, GLR3.3, and GLR3.6), B. oleracea (BoGLR3.3) or O. sativa (OsGLR3.1). The coding sequences of GLR3.3-CD2 and GLR3.3-T3 were generated through site-directed mutagenesis with GLR3.3 as template. All coding sequences respectively inserted into a dual-promoter vector pBudCE4.1 (Invitrogen) with coding sequence of GCaMP6s for co-expression in […] or COS-7 cells as previously described. Mammalian cells were cultured in DMEM supplemented with 10% FBS in a 5% CO2 incubator at 37° C. under controlled humidity, and transfected using a Lipofectamine 3000 Transfection Reagent kit (Invitrogen).
(§2) COS-7 cells expressing GCaMP6s together with various GLR proteins were monitored by a Zeiss AxioObserver ZI inverted microscope (Ivision 4.5 software) with 2-s intervals under a 20× objective as previously described. The standard solution for Ca^2+ imaging contained 120 mM NaCl, 3 mM KCl, 1 mM MgCl2, 1.2 mM NaHCO3, 10 mM glucose, 10 mM HEPES, pH 7.5. At 60 s after initiation of the imaging procedure, the bath was perfused using a peristaltic pump with the standard solution supplemented with 100 mM glutamate to elicit Ca^2+ entry through active channels.

[2] = target: T1, OsGLR3.1 (Oryza sativa subsp. japonica, UniProt Q7XP59); assay: Single-cell Ca2+ imaging in COS-7 cells expressing OsGLR3.1; assay type: cell-based; details: COS-7 cells expressing OsGLR3.1 alone, external Glu application
T1 construct: expressed in transfected cells; host or cells: COS-7
T1 sequence (Q7XP59 21-938): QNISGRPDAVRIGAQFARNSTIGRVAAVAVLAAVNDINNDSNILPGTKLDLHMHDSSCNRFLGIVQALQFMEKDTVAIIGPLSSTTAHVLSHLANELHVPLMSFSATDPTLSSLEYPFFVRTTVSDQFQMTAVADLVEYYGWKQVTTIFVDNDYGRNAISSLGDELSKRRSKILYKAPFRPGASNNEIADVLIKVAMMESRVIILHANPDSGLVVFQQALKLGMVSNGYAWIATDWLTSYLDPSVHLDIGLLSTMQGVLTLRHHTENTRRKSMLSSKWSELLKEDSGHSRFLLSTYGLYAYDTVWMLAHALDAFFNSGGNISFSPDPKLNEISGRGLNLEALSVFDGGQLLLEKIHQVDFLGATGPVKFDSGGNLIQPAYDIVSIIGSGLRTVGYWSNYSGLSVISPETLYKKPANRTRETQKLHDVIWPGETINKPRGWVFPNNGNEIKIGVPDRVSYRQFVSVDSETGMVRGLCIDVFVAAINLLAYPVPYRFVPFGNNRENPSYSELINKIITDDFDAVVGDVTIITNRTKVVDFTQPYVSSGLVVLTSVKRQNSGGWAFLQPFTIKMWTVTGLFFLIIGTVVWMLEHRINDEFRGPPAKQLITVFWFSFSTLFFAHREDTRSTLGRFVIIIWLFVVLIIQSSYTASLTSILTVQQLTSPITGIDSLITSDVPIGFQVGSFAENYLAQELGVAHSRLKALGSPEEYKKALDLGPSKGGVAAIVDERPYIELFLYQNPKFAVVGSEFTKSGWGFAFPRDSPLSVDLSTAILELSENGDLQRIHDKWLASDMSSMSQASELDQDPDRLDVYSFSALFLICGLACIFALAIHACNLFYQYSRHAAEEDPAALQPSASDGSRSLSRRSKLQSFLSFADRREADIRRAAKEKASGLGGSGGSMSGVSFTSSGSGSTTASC
Procedure: as §1, §2

[3] = target: T2, GLR3.3 channel (Arabidopsis thaliana, UniProt Q9C8E7); assay: Single-cell Ca2+ imaging in COS-7 cells expressing GLR3.3; assay type: cell-based; design: expressed in transfected cells; host or cells: COS-7 (Ca2+ imaging); details: COS-7 cells expressing GLR3.3 alone, external Glu application (100 mM glutamate)
T2 sequence (Q9C8E7 24-933): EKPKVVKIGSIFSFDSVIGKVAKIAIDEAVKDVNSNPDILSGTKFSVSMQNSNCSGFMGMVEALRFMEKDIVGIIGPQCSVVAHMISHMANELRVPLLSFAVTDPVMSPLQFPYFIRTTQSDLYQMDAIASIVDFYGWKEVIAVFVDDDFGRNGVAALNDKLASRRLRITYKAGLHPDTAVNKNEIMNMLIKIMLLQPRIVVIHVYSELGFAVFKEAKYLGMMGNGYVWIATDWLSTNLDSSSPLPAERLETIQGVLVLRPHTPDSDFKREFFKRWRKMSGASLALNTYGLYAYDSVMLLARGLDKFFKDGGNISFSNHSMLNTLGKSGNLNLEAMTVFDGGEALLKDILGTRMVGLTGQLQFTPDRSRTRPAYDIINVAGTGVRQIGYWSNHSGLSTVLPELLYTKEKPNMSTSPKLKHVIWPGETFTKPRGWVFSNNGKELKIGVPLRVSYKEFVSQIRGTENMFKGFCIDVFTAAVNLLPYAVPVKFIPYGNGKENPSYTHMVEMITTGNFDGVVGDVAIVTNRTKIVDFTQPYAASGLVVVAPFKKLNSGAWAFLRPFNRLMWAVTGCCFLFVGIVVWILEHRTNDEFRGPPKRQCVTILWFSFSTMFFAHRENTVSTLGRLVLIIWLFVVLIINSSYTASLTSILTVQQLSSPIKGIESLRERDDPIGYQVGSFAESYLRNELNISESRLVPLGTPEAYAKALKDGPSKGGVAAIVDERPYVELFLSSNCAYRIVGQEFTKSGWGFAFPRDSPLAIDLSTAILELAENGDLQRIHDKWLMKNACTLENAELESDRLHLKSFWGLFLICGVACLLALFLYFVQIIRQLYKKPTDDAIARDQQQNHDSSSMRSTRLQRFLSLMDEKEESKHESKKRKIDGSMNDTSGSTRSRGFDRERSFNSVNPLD
Procedure: as §1, §2

[4] = target: T2, GLR3.3 channel; assay: Whole-cell patch-clamp recording in HEK293 cells expressing GLR3.3; assay type: cell-based; design: expressed in transfected cells; host or cells: COS-7 (Ca2+ imaging) / HEK293 (patch clamp); details: HEK293 cells expressing GLR3.3 alone, free internal Ca2+ in pipette 1 μM, external Glu
Procedure: The whole-cell patch-clamp recordings were performed on an Axopatch 200B patch-clamp configuration with a Digidata 1550 digitizer (Axon Instruments) as described previously. Clampex 10.7 and Clampfit 10.7 software (Axon Instruments) were used for data acquisition and analysis.
To record Ca^2+ currents across plasma membrane of HEK293 cells, the bath solution contained 100 mM Na-glutamate, 40 mM NaCl, 5 mM KCl, 2 mM MgCl2, 10 mM CaCl2, 10 mM HEPES, and 10 mM glucose (pH 7.5, adjusted with NaOH). The pipette solution with 0 nM free Ca^2+ contained 140 mM CsCl, 5 mM EGTA, and 10 mM HEPES (pH 7.5, adjusted with CsOH), while the pipette solution with 1 μM free Ca^2+ contained 140 mM CsCl, 5 mM EGTA, 4.85 mM CaCl2) and 10 mM HEPES (pH 7.5, adjusted with CsOH). Free Ca^2+ was calculated with Webmaxc Standard software (https://somapp.ucdmc.ucdavis.edu/pharmacology/bers/maxchelator/webmaxc/webmaxcS.htm). A ramp voltage protocol of 2-s duration from −180 mV to +20 mV (holding potential 0 mV) was applied 1 min after achieving a whole-cell configuration, and currents were recorded every 20 s, with 5 repeats in total for each cell. The five current traces were used for statistical analysis to produce average current-voltage curves.

[5] = target: T3, CaM7 (Arabidopsis thaliana, UniProt P59220); assay: ITC (isothermal titration calorimetry) assay of CBD peptides with 6His-CaM7; assay type: binding; details: ratio of KD values
T3 construct: made in house; host or cells: Escherichia coli BL21 (DE3)
Procedure: ITC was carried out at 25° C. on a MicroCal iTC200 instrument (GE Healthcare). 250 μM of peptides were titrated against 20 μM of 6His-CaM7 proteins (purified by size-exclusion chromatography using Superdex 200 Increase 10/300 GL, GE Healthcare) in the reaction buffer (25 mM HEPES, 100 mM NaCl, pH 7.5) with addition of 1 mM Ca^2+ or 2 mM EGTA. Titrations were performed by an automated sequence of 20 injections spaced at 150-s intervals to ensure complete equilibration, and raw data were analyzed with Origin software (version 7.0) supplied with the instrument.

Row | SMILES | Glu-activated [Ca2+]cyt change [1] | Glu-activated [Ca2+]cyt change [2] | Glu-activated [Ca2+]cyt change [3] | Glu-induced currents [4] | CaM binding affinity lower than that of wild type CBD [5]
1 | N[C@@H](CCC(=O)O)C(=O)O [Glu, glutamate] | rapid [Ca^2+]cyt increases | rapid [Ca^2+]cyt increases | rapid [Ca^2+]cyt increases | large inward currents | –
2 | CC(C)C[C@H](NC(=O)[C@H](CO)NC(=O)[C@H](CC(C)C)NC(=O)[C@H](Cc1ccccc1)NC(=O)[C@H](CCCNC(=N)N)NC(=O)[C@H](CCC(N)=O)NC(=O)[C@H](CC(C)C)NC(=O)[C@H](CCCNC(=N)N)NC(=O)[C@@H](NC(=O)[C@H](CO)NC(=O)[C@H](CC(=O)O)NC(=O)[C@H](Cc1c[nH]cn1)NC(=O)[C@H](CC(N)=O)NC(=O)[C@H](CCC(N)=O)NC(=O)[C@H](CCC(N)=O)NC(=O)[C@H](CCC(N)=O)NC(=O)[C@@H](N)CC(=O)O)[C@@H](C)O)C(=O)O [mutated CBD peptide] | – | – | – | – | approximately 10 fold
